{"source": "patent US20250235418A1", "about": "“Butyrate Analogues and Methods of Use for HIF Stabilization and Treatment of Bowel Disease” (THE REGENTS OF THE UNIVERSITY OF COLORADO, A BODY CORPORATE, priority 2022, published 2025)", "key": {"[1]": {"conditions": "oral gavage, 1 h after dosing, mice; cited from earlier work"}, "[2]": {"system": "HIF-1α / PHDs in murine colon", "experiment": "tributyrin oral gavage with or without MCPA in antibiotic SCFA-depleted mice", "type": "in vivo", "description": "We next confirmed that butyrate functions as a PHD inhibitor in vivo through antibiotic-mediated depletion of the gut microbiota and SCFAs in mice. […] We administered tributyrin (200 μL), a prodrug of butyrate composed of a glycerol backbone with three butyrate moieties, to SCFA-depleted mice via oral gavage every day for three days with glycerol as a control. Additionally, some mice given tributyrin were subjected with a rectal gavage of 60 mM MCPA to inhibit butyrate metabolism 4 h prior to sacrifice. […] 60 mM MCPA was chosen as a well-tolerated dose that inhibited β-oxidation in mice and rats. […] HIF-la protein was also diminished in epithelial scrapings (FIG. 8B) and whole colon tissue (FIG. 8C) with antibiotic treatment, which was also rescued with tributyrin supplementation with or without MCPA. […] The stabilization of HIF-1α in whole colon tissue also is in agreement with our findings in HMEC-1 and A549 cells that PHD inhibition by butyrate expands to beyond just IECs alone."}, "[3]": {"conditions": "tributyrin with or without MCPA"}}, "data": [{"compound": "CCCC(=O)OCC(COC(=O)CCC)OC(=O)CCC", "note": "[tributyrin]", "values": [{"measurement": "plasma butyrate concentration", "setting": "[1]", "value": "> 1", "unit": "mM"}, {"measurement": "HIF-1α protein after antibiotic depletion", "setting": "[2]; epithelial scrapings and whole colon tissue, tributyrin with or without MCPA", "value": "rescued"}, {"measurement": "colon tissue 2-OG levels after antibiotic depletion", "setting": "[2]; [3]", "value": "recovered"}, {"measurement": "colon tissue butyrate levels after antibiotic depletion", "setting": "[2]; [3]", "value": "rescued"}, {"measurement": "HIF-1α target gene Bnip3l mRNA after antibiotic depletion", "setting": "[2]; whole colon tissue and epithelial scrapings, tributyrin 200 μL oral gavage 3 d, with or without MCPA", "value": "normalized"}]}]}
